From patent US8980796B2, “Crystal modification of Mesotrione” (Agan Chemical Manufacturers Ltd., priority 2009, dated 2015)
Entries after “also recorded” stand apart in the source; their conditions may differ. Where two headings read alike, the source gives them in different places.

What was measured:
[1] = per WO 2007/083242, WO 2006/021743, cited from earlier work
corn varieties = assay: Selectivity pot trials, overall phytotoxicity on crops; format: in vivo; details: corn varieties tested; 3500 ml/ha (equivalent to 350g a.i./ha)
Experimental: The selectivity of two Mesotrione 100SC (containing 100 g/l mesotrione) formulations was compared for two crystal modifications (1 and 3).
The test was performed on three corn varieties. The corn varieties were sown in plastic pots (400 cc) filled with heavy soil. Each treatment was sprayed in 5 replicates. The trial was performed in a glasshouse with controlled temperature (20-30°).
Post emergence spraying was performed two weeks after sowing. The trials were sprayed with a mechanical sprayer, with a spray volume of 200 L/ha (equivalent to 3500 ml/ha mesotrione 100SC). The plants were irrigated 24 H (hours) after spraying. Selectivity evaluations were conducted during the trial according to the following scale: • 0=Crop completely dead (necrotic). • 100=Plants without any phytotoxic damage.

## CS(=O)(=O)c1ccc(C(=O)C2C(=O)CCCC2=O)c([N+](=O)[O-])c1 [Mesotrione form 1, 2-[4-(methylsulfonyl)-2-nitrobenzoyl]-1,3-cyclohexanedione]
[1]; listed as Form 1
  thermodynamic stability of the polymorphic form: thermodynamically stable

## CS(=O)(=O)c1ccc(C(=O)C2C(=O)CCCC2=O)c([N+](=O)[O-])c1 [Mesotrione form 2, 2-[4-(methylsulfonyl)-2-nitrobenzoyl]-1,3-cyclohexanedione]
[1]; listed as Form 2
  thermodynamic stability of the polymorphic form: thermodynamically unstable

## CS(=O)(=O)c1ccc(C(=O)C2C(=O)CCCC2=O)c([N+](=O)[O-])c1 [Mesotrione form 3, 2-[4-(methylsulfonyl)-2-nitrobenzoyl]-1,3-cyclohexanedione]
Corn varieties
  phytotoxicity on crops as compared to mesotrione form 1: decreased phytotoxicity; also recorded: low phytotoxicity
